# Measured values reported in patent publication US9284541B2, “Methods and compositions for protein labeling using lipoic acid ligases” (Massachusetts Institute of Technology, priority 2007, dated 2016).
# Entries after “also recorded” stand apart in the source; their conditions may differ.
# Experiments:
# E. coli LplA = target: T1, E. coli LplA (Escherichia coli, UniProt P32099); test: Measurement of LplA-probe ligation kinetics (HPLC); assay type: biochemical
# T1 sequence (P32099 2-338 limits assumed): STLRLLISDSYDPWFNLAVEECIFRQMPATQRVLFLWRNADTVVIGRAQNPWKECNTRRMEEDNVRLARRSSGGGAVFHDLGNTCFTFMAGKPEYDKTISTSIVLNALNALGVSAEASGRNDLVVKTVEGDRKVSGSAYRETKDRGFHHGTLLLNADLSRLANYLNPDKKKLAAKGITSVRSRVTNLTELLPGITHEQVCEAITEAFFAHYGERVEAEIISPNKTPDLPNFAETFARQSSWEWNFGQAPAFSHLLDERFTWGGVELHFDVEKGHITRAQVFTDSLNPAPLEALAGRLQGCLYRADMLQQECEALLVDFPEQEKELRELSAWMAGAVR
# Experimental: To measure the kcat for LplA ligation of lipoic acid to E2p, 50 nM LplA was combined with 200 μM E2p, 750 μM lipoic acid, […], and 2 mM magnesium acetate in 25 mM sodium phosphate pH 7.0. The reaction was initiated with addition of 1 mM ATP to the pre-warmed (30° C.) mixture. The reaction was incubated at 30° C., and 90 μL aliquots were removed every 5 minutes and quenched with 50 mM EDTA (final concentration). Samples were analyzed by C18 reverse-phase HPLC as described in the “Methods” section. Measurements were performed in triplicate. A calibration curve was obtained that correlated the ratio of integrated HPLC peak areas (E2p:E2p-probe) to the actual protein ratio, in order to compensate for differences in the extinction coefficients of E2p and lipoylated E2p. The amount of product obtained at each time point was plotted against time, to obtain the Vmax of the reaction. From this, the kcat value was obtained using the equation Vmax=kcat [E]total.
# 90 μL aliquots were removed from the 30° C. reactions at 5 minutes intervals, up to 30 minutes, and quenched with 50 mM EDTA (final concentration). Samples were analyzed by HPLC as above. The amount of product obtained at each time point was plotted against time, to obtain the initial velocity for each concentration of azide 7. […] From the Vmax value, kcat was calculated using the equation Vmax=kcat [E]total.
# LplA [1] = target: T2, LplA (Escherichia coli, UniProt P32099); test: In vitro LplA activity assay: probe ligation onto E2p (HPLC); assay type: biochemical, E. coli; settings: 350 μM probe, 200 μM E2p, 30 minutes
# Experimental: LplA reactions contained 2 μM LplA, 200 μM E2p, 350 μM probe, 1 mM ATP, 2 mM magnesium acetate, and 25 mM sodium phosphate pH 7.0. Reactions were incubated at 30° C. for 30 minutes, and then quenched with EDTA (final concentration 50 mM). Conversion to product was determined by HPLC on a C18 reverse-phase column with a 40-57% gradient of acetonitrile in water with 0.1% trifluoroacetic acid over 20 minutes (flow rate 1.0 mL/minute). […] Percent conversion to product was calculated from the ratio of the E2p-probe peak area to the sum of (E2p+E2p-probe) peak areas. All measurements were performed in triplicate.
# [2] = tested on: mitochondrial respiration; test: Effect of azide 7 on mitochondrial respiration; assay type: cell-based; settings: 24-hour exposure, concentrations less than 750 μM
# LplA [3] = target: T2, LplA; test: HPLC analysis of LplA modification of HP1-peptide fusions; kcat of azide 7 ligation to LAP; assay type: biochemical, E. coli; settings: C-terminal fusion to HP1 versus peptide 8
# Experimental: To compare the conversion rates for different peptide substrates, reactions were assembled as follows: 1.5 μM LplA, 150 μM HP1-peptide fusion, 750 μM azide 7, 1 mM ATP, and 2 mM magnesium acetate in 25 mM sodium phosphate pH 7.0. Reactions were incubated at 30° C. for 2 hours, then quenched with 50 mM EDTA (final concentration), and subsequently analyzed by C18 reverse-phase HPLC using a gradient of 30-45% acetonitrile in water with 0.1% trifluoroacetic acid over 20 minutes with a 1 mL/minute flow rate. Retention times for unmodified HP1-peptide fusions ranged from 8-12 minutes, and shifted to 16-21 minutes after ligation to azide 7. Measurements were performed in triplicate. The extent of modification was calculated from the ratio of HP1-peptide-azide 7 peak area to the sum of (HP1-peptide+HP1-peptide-azide 7) peak areas.
compound,measurement,setting,value
O=C(O)CCCC[C@@H]1CCSS1 (racemic) [lipoic acid],kcat of LplA-catalyzed ligation to E2p,"E. coli LplA; 30° C., pH 7.0",0.253 ± 0.003 s⁻¹
"[N-]=[N+]=NCCCCCCCC(=O)O [azide 7, 8-azidooctanoic acid]",incorporation / ligation kinetics by LplA,LplA [1],fastest kinetics; also recorded: best kinetics
same,Kcat relative to the measured Kcat for lipoic acid ligation,E. coli LplA; ligation to E2p,2.3 fold
same,effect on mitochondrial respiration,[2],no effect
peptide 9: peptide 8 fused to the C-terminal end of HP1 (SEQ ID NO: 9) (DEVLVEIETDKAVLEVP),drop of lipoylation rate,LplA [3],5 fold
